Where two headings read alike, the source gives them in different places.
Experiments:
[1] = system: bed bugs (Cimex lectularius); experiment: bed bug repellency assay; type: in vivo; conditions: for % Rep (bed bug repellency): compound or combination on filter paper harborage, ten bed bugs
Description: Compounds and combinations of compounds of the present invention were assayed for their ability to repel bed bugs (Cimex lectularius) using a bed bug repellency assay. This assay takes advantage of the bed bug's natural tendency to seek harborage. Two petri dishes were obtained and the inner areas of each were sanded down (leaving the perimeter smooth.) Talc was applied on the perimeter and on the inside walls of the petri dishes with a small paint brush to prevent bed bugs from escaping. A cut off top portion of a solo bathroom cup was placed upside down in the center of one petri dish. A large plastic secondary container was gathered and a paper towel was laid down inside the bottom. The petri dish was then placed inside and ten bed bugs were placed inside the cut off portion of the solo cup. Next, two pieces of filter paper were cut down the middle to yield 4 equally sized halves. 3 pieces were placed inside a glass dish ([…]) and the remaining piece was placed in a separate dish. All 4 pieces were folded down the middle to create a “tent” or “harborage” when laid such that the folded crease faced up. 100 microliters of isopropyl alcohol was pipetted into 3 pieces of filter paper (all housed in the first glass dish.) In a separate 4 ml vial, 90 microliters of isopropyl alcohol was combined and vortexed with 10 microliters of the compound or compound combination being tested. 100 microliters of this solution [comprising a total of 100 mg of compound(s)] was pipetted onto the filter paper in the separate dish. All filter papers were then allowed to dry. Once dry, experiments were conducted first with two filter paper halves comprising only the isopropyl alcohol (control experiment) and then with the remaining filter paper halves [one with only isopropyl alcohol and one comprising the test compound(s).] Filter paper halves were placed on opposing sides of experimental petri dishes and bed bugs were allowed to move freely within the dishes for 5 minutes. Movement of bed bugs beneath each filter paper tent was recorded. […] In the Table, “Rep” refers to repellency and “Cmpd” refers to compound.

larvae = experiment: larvicidal activity assay; type: in vivo; conditions: for pest or weed control at 0.25 %: read-out: % Lethality with 0.25% compound conc.; for pest or weed control at 100 ppm: read-out: % Lethality at 100 ppm
Description: A 6-well plate (Corning Life Sciences, Tewksbury, Mass.) is used to test a compound's larvicidal activity. […] After a 24 hour exposure, the number of dead larvae are counted and recorded.
The results are presented in Table 17 as % lethality (the number of dead larvae divided by the total number of larvae).

cpA neurons [2] = experiment: extracellular single-sensillum electrophysiology: inhibition of CO2-responsive (cpA) neuronal activity; conditions: for Class: Table 10, single compounds, percent reduction in cpA activity compared to baseline; for Class (inhibitor class of the individual component): Inh = inhibitor
cpA neurons [3] = experiment: extracellular single-sensillum electrophysiology: activation of cpA neuronal activity; conditions: for Class: Table 6, single compounds, increase over baseline cpA neuronal activity; for Comp A Class / Comp B Class: Table 9; for Comp A Class: component A tested individually; for Comp B Class: component B tested individually; for Class B (activator class of the individual component): Table 15, single component alone, Mod Actv; for Class (activator class of the individual component): Actv = activator
female mosquitoes = experiment: whole plant or invertebrate; conditions: 2 h; for mortality at 200 µg/mL: read-out: % mortality with 0.2 mg/ml; for mortality at 2000 µg/mL: read-out: % mortality with 2 mg/ml
[4] = 0.25% compound, 24 hour exposure, dead larvae / total larvae
[5] = 100 ppm compound, 24 hour exposure, dead larvae / total larvae
[6] = Table 13, single component alone
[7] = Table 16, single component alone

## 2-methoxy-3(5or6)isopropylpyrazine [OLI0072]
[1]
  % Rep (bed bug repellency): 100%
larvae; [4]
  % Lethality with 0.25% compound conc.: 100% lethal
larvae; [5]
  % Lethality at 100 ppm: 0% lethal
cpA neurons [2]
  Class: Moderate Inhibitor (moderate inhibitors (reducing activity by 40-60%))
  inhibitor class of single compound: moderate inhibitor (40-60% reduction in neuronal activity as compared to baseline activity of the neuron)
cpA neurons [2]; [6]
  Class (inhibitor class of the individual component): Mod
cpA neurons [2]; [7]
  Class (inhibitor class of the individual component): Mod

## Cc1cnc(C)c(C)n1 [OLI0014, 2,3,5-trimethylpyrazine]
[1]
  % Rep (bed bug repellency): 59%
cpA neurons [3]
  Class: Moderate Activator (Moderate activators yield an increase in neuronal activity that is between 40 and 60 spk/sec over baseline neuronal activity)
  Comp A Class: Mod
  Comp B Class: Mod
  Class B (activator class of the individual component): Mod
Female mosquitoes
  mortality at 200 µg/mL: 0%
  mortality at 2000 µg/mL: 0%
larvae; [4]
  pest or weed control at 0.25 %: 21%
larvae; [5]
  pest or weed control at 100 ppm: 0%

## Cc1nccnc1C [OLI0015, 2,3-dimethylpyrazine]
[1]
  % Rep (bed bug repellency): 77%
cpA neurons [3]
  Class: Moderate Activator (Moderate activators yield an increase in neuronal activity that is between 40 and 60 spk/sec over baseline neuronal activity)
  Comp A Class: Mod
  Comp B Class: Mod
  Class B (activator class of the individual component): Mod
cpA neurons [3]; [6]
  Class (activator class of the individual component): Mod
cpA neurons [3]; [7]
  Class (activator class of the individual component): Mod
cpA neurons [3]; single compound
  activator class of single compound: moderate activator (spike rate of 40-60 spk/sec over the baseline activity of the neuron)
Female mosquitoes
  mortality at 200 µg/mL: 0%
  mortality at 2000 µg/mL: 0%
larvae; [4]
  pest or weed control at 0.25 %: 0%
larvae; [5]
  pest or weed control at 100 ppm: 0%

## CC(=O)c1ccc(C)o1 [OLI0016, 2-acetyl-5-methyl furan]
[1]
  % Rep (bed bug repellency): 86%
cpA neurons [3]
  Class: Moderate Activator (Moderate activators yield an increase in neuronal activity that is between 40 and 60 spk/sec over baseline neuronal activity)
  Comp A Class: Mod
  Comp B Class: Mod
  Class B (activator class of the individual component): Mod
Female mosquitoes
  mortality at 200 µg/mL: 0%
  mortality at 2000 µg/mL: 0%
larvae; [4]
  pest or weed control at 0.25 %: 100%
larvae; [5]
  pest or weed control at 100 ppm: 0%

## CC(=O)c1ccco1 [OLI0017, 2-furyl methyl ketone]
[1]
  % Rep (bed bug repellency): 60%
cpA neurons [3]
  Class: Moderate Activator (Moderate activators yield an increase in neuronal activity that is between 40 and 60 spk/sec over baseline neuronal activity)
  Comp A Class: Mod
  Class B (activator class of the individual component): Mod
Female mosquitoes
  mortality at 200 µg/mL: 0%
  mortality at 2000 µg/mL: 0%
larvae; [4]
  pest or weed control at 0.25 %: 100%
larvae; [5]
  pest or weed control at 100 ppm: 50%

## C=CCOC(=O)CCC [OLI0019, allyl butyrate]
[1]
  % Rep (bed bug repellency): 8%
cpA neurons [3]
  Class: Moderate Activator (Moderate activators yield an increase in neuronal activity that is between 40 and 60 spk/sec over baseline neuronal activity)
  Comp B Class: Mod
  Class B (activator class of the individual component): Mod
Female mosquitoes
  mortality at 200 µg/mL: 0%
  mortality at 2000 µg/mL: 0%
larvae; [4]
  pest or weed control at 0.25 %: 100%
larvae; [5]
  pest or weed control at 100 ppm: 0%

## CCCC(O)CC(=O)OCC (stereo not shown) [OLI0021, ethyl 3-hydroxyhexanoate]
[1]
  % Rep (bed bug repellency): 100%
cpA neurons [3]
  Class: Moderate Activator (Moderate activators yield an increase in neuronal activity that is between 40 and 60 spk/sec over baseline neuronal activity)
  Comp A Class: Mod
  Comp B Class: Mod
  Class B (activator class of the individual component): Mod
Female mosquitoes
  mortality at 200 µg/mL: 0%
  mortality at 2000 µg/mL: 75%
larvae; [4]
  pest or weed control at 0.25 %: 0%
larvae; [5]
  pest or weed control at 100 ppm: 0%

## c1ccc2[nH]ccc2c1 [OLI0052, indole]
[1]
  % Rep (bed bug repellency): 100%
cpA neurons [3]
  Class: Mild Activator (mild activators yield an increase in neuronal activity that is between 20 and 40 spk/sec over baseline neuronal activity)
Female mosquitoes
  mortality at 200 µg/mL: 0%
  mortality at 2000 µg/mL: 100%
larvae; 24 h
  pest or weed control at 100 ppm: 100%
  pest or weed control at 0.25 %: 100%

## O=C/C=C/c1ccccc1 [OLI0065, trans-cinnamaldehyde]
[1]
  % Rep (bed bug repellency): 100%
cpA neurons [3]
  Class: Mild Activator (mild activators yield an increase in neuronal activity that is between 20 and 40 spk/sec over baseline neuronal activity)
Female mosquitoes
  mortality at 200 µg/mL: 0%
  mortality at 2000 µg/mL: 0%
larvae; 24 h
  pest or weed control at 100 ppm: 0%
  pest or weed control at 0.25 %: 100%

## CCCCC=O [OLI0066, valeraldehyde]
[1]
  % Rep (bed bug repellency): 33%
cpA neurons [3]
  Class: Mild Activator (mild activators yield an increase in neuronal activity that is between 20 and 40 spk/sec over baseline neuronal activity)
Female mosquitoes
  mortality at 200 µg/mL: 0%
  mortality at 2000 µg/mL: 0%
larvae; [4]
  pest or weed control at 0.25 %: 35%
larvae; [5]
  pest or weed control at 100 ppm: 0%

## CCc1ncc(C)nc1CC [OLI0067, 2,3-diethyl-5-methylpyrazine]
[1]
  % Rep (bed bug repellency): 100%
Female mosquitoes
  mortality at 200 µg/mL: 0%
  mortality at 2000 µg/mL: 0%
larvae; [4]
  pest or weed control at 0.25 %: 100%
larvae; [5]
  pest or weed control at 100 ppm: 0%
cpA neurons [2]
  Class: Strong Inhibitor (strong inhibitors (reducing activity >60%))

## CCc1nccnc1CC [OLI0068, 2,3-diethylpyrazine]
[1]
  % Rep (bed bug repellency): 24%
Female mosquitoes
  mortality at 200 µg/mL: 0%
  mortality at 2000 µg/mL: 0%
larvae; [4]
  pest or weed control at 0.25 %: 100%
larvae; [5]
  pest or weed control at 100 ppm: 0%
cpA neurons [2]
  Class: Strong Inhibitor (strong inhibitors (reducing activity >60%))
cpA neurons [2]; [7]
  Class (inhibitor class of the individual component): Strng

## CCc1nccnc1C [OLI0069, 2-ethyl-3-methylpyrazine]
[1]
  % Rep (bed bug repellency): 10%
Female mosquitoes
  mortality at 200 µg/mL: 0%
  mortality at 2000 µg/mL: 0%
larvae; [4]
  pest or weed control at 0.25 %: 100%
larvae; [5]
  pest or weed control at 100 ppm: 0%
cpA neurons [2]
  Class: Strong Inhibitor (strong inhibitors (reducing activity >60%))

## CCc1nccnc1OC [OLI0071, 2-ethyl-3-methoxypyrazine]
[1]
  % Rep (bed bug repellency): 29%
Female mosquitoes
  mortality at 200 µg/mL: 0%
  mortality at 2000 µg/mL: 0%
larvae; [4]
  pest or weed control at 0.25 %: 100%
larvae; [5]
  pest or weed control at 100 ppm: 0%
cpA neurons [2]
  Class: Moderate Inhibitor (moderate inhibitors (reducing activity by 40-60%))
  inhibitor class of single compound: moderate inhibitor (40-60% reduction in neuronal activity as compared to baseline activity of the neuron)
cpA neurons [2]; [6]
  Class (inhibitor class of the individual component): Mod
cpA neurons [2]; [7]
  Class (inhibitor class of the individual component): Mod

## CCCCCCC/C=C/C=O [OLI0077, trans-2-decenal]
[1]
  % Rep (bed bug repellency): 72%
cpA neurons [2]
  Class: Moderate Inhibitor (moderate inhibitors (reducing activity by 40-60%))
cpA neurons [2]; [6]
  Class (inhibitor class of the individual component): Mod

## CCCCCCC(=O)OC [OLI0091, methyl heptanoate]
[1]
  % Rep (bed bug repellency): 20%
cpA neurons [3]
  Comp A Class: Mild Inh (mild inhibitors (reducing activity by 20-40%))
Female mosquitoes
  mortality at 200 µg/mL: 0%
  mortality at 2000 µg/mL: 0%
larvae; [4]
  pest or weed control at 0.25 %: 72%
larvae; [5]
  pest or weed control at 100 ppm: 0%
cpA neurons [2]
  Class: Mild Inhibitor (mild inhibitors (reducing activity by 20-40%))

## CCCCCC(C)=O [OLI0092, methylamylketone]
[1]
  % Rep (bed bug repellency): 8%
cpA neurons [3]
  Comp B Class: Mild Inh (mild inhibitors (reducing activity by 20-40%))
Female mosquitoes
  mortality at 200 µg/mL: 0%
  mortality at 2000 µg/mL: 0%
larvae; [4]
  pest or weed control at 0.25 %: 73%
larvae; [5]
  pest or weed control at 100 ppm: 32%
cpA neurons [2]
  Class: Mild Inhibitor (mild inhibitors (reducing activity by 20-40%))

## C=CCc1ccc(O)c(OC)c1 [OLI0102, Eugenol]
[1]; 100 microliters solution on filter paper tent, 5 minutes
  ability to repel bed bugs: surprisingly strong ability to repel bed bugs
[1]
  % Rep (bed bug repellency): 100%
Female mosquitoes
  mortality at 200 µg/mL: 0%
  mortality at 2000 µg/mL: 100%
larvae; [4]
  pest or weed control at 0.25 %: 100%
larvae; [5]
  pest or weed control at 100 ppm: 25%
cpA neurons [2]; [6]
  Class (inhibitor class of the individual component): Mild
cpA neurons [2]; [7]
  Class (inhibitor class of the individual component): Mild

From patent US20150216182A1, “COMPOSITIONS AND METHODS OF THE ATTRACTION AND REPULSION OF INSECTS” (Olfactor Laboratories, Inc., priority 2012, published 2015)
